Assay results taken from the NIST ThermoML archive (doi:10.1016/j.jct.2014.05.019).

Test: xn = mol fraction of the nth substance listed
Conditions: 100 kPa, Liquid; for electrical conductivity: Alternating current cell with electrodes; for viscosity: Falling or rolling sphere viscometry; for mass density: Vibrating tube method

NC(CO)C(=O)[O-].[Na+] (stereo not drawn) [sodium DL-serine] + O
Conditions | electrical conductivity [S/m] | mass density [kg/m3] | viscosity [mPa·s]
303.15 K, x1 = 0.009 | 2.7 | 1028.3 | 0.9965
303.15 K, x1 = 0.018 | 4.28 | 1060.1 | 1.221
303.15 K, x1 = 0.028 | 5.19 | 1090.9 | 1.552
303.15 K, x1 = 0.037 | 5.57 | 1121.1 | 1.967
303.15 K, x1 = 0.048 | 5.59 | 1150.7 | 2.599
303.15 K, x1 = 0.058 | 5.3 | 1181.9 | –
303.15 K, x1 = 0.059 | – | – | 3.496
308.15 K, x1 = 0.009 | 2.98 | 1026.5 | 0.9018
308.15 K, x1 = 0.018 | 4.73 | 1058.1 | 1.097
308.15 K, x1 = 0.028 | 5.74 | 1088.8 | 1.377
308.15 K, x1 = 0.037 | 6.2 | 1118.7 | 1.739
308.15 K, x1 = 0.048 | 6.27 | 1148.2 | 2.28
308.15 K, x1 = 0.058 | 5.99 | 1179.2 | –
308.15 K, x1 = 0.059 | – | – | 3.027
313.15 K, x1 = 0.009 | 3.27 | 1024.6 | 0.8058
313.15 K, x1 = 0.018 | 5.2 | 1055.9 | 0.9981
313.15 K, x1 = 0.028 | 6.3 | 1086.4 | 1.236
313.15 K, x1 = 0.037 | 6.82 | 1116.3 | 1.563
313.15 K, x1 = 0.048 | 6.96 | 1145.5 | 2.007
313.15 K, x1 = 0.058 | 6.69 | 1176.5 | –
313.15 K, x1 = 0.059 | – | – | 2.661
318.15 K, x1 = 0.009 | 3.57 | 1022.5 | 0.7337
318.15 K, x1 = 0.018 | 5.64 | 1053.6 | 0.8941
318.15 K, x1 = 0.028 | 6.87 | 1084 | 1.116
318.15 K, x1 = 0.037 | 7.49 | 1113.7 | 1.394
318.15 K, x1 = 0.048 | 7.66 | 1142.8 | 1.792
318.15 K, x1 = 0.058 | 7.44 | 1173.7 | –
318.15 K, x1 = 0.059 | – | – | 2.351
323.15 K, x1 = 0.009 | 3.87 | 1020.2 | 0.6788
323.15 K, x1 = 0.018 | 6.12 | 1051.2 | 0.8127
323.15 K, x1 = 0.028 | 7.46 | 1081.5 | 1.012
323.15 K, x1 = 0.037 | 8.17 | 1111.1 | 1.26
323.15 K, x1 = 0.048 | 8.38 | 1140.1 | 1.608
323.15 K, x1 = 0.058 | 8.19 | 1170.8 | –
323.15 K, x1 = 0.059 | – | – | 2.091
328.15 K, x1 = 0.009 | 4.17 | 1017.8 | 0.6217
328.15 K, x1 = 0.018 | 6.59 | 1048.7 | 0.7448
328.15 K, x1 = 0.028 | 8.05 | 1078.9 | 0.9186
328.15 K, x1 = 0.037 | 8.86 | 1108.3 | 1.149
328.15 K, x1 = 0.048 | 9.12 | 1137.3 | 1.452
328.15 K, x1 = 0.058 | 8.97 | 1167.9 | –
328.15 K, x1 = 0.059 | – | – | 1.872
333.15 K, x1 = 0.009 | 4.48 | 1015.3 | 0.575
333.15 K, x1 = 0.018 | 7.06 | 1046 | 0.692
333.15 K, x1 = 0.028 | 8.64 | 1076.1 | 0.8431
333.15 K, x1 = 0.037 | 9.52 | 1105.5 | 1.055
333.15 K, x1 = 0.048 | 9.82 | 1134.4 | 1.321
333.15 K, x1 = 0.058 | 9.74 | 1164.9 | –
333.15 K, x1 = 0.059 | – | – | 1.709
338.15 K, x1 = 0.009 | 4.8 | 1012.7 | 0.537
338.15 K, x1 = 0.018 | 7.53 | 1043.2 | 0.6342
338.15 K, x1 = 0.028 | 9.24 | 1073.3 | 0.7788
338.15 K, x1 = 0.037 | 10.2 | 1102.6 | 0.9608
338.15 K, x1 = 0.048 | 10.6 | 1131.4 | 1.206
338.15 K, x1 = 0.058 | 10.5 | 1161.8 | –
338.15 K, x1 = 0.059 | – | – | 1.531
343.15 K, x1 = 0.009 | 5.1 | 1009.9 | 0.4983
343.15 K, x1 = 0.018 | 8.01 | 1040.4 | 0.5945
343.15 K, x1 = 0.028 | 9.84 | 1070.4 | 0.72
343.15 K, x1 = 0.037 | 10.8 | 1099.6 | 0.8858
343.15 K, x1 = 0.048 | 11.3 | 1128.4 | 1.108
343.15 K, x1 = 0.058 | 11.3 | 1158.7 | –
343.15 K, x1 = 0.059 | – | – | 1.399
